From patent US6699864B2, “Substituted phenyl-piperazine derivatives, their preparation and use” (H. Lundbeck A/S, priority 1999, dated 2004)
Where a name gives a salt, the structure may show the parent alone.

Assays:
human 5-HT1A receptors = biological target: T1, human 5-HT1A receptors (Homo sapiens, UniProt P08908); experiment: Inhibition of 3H-5-CT binding to human 5-HT1A receptors; settings: cloned human 5-HT1A receptors expressed in HeLa cells (HA7); 15 minutes at 37° C., pH 7.7
T1 construct: expressed in transfected cells; host or cells: HeLa cells (HA7)
T1 sequence (P08908 1-422): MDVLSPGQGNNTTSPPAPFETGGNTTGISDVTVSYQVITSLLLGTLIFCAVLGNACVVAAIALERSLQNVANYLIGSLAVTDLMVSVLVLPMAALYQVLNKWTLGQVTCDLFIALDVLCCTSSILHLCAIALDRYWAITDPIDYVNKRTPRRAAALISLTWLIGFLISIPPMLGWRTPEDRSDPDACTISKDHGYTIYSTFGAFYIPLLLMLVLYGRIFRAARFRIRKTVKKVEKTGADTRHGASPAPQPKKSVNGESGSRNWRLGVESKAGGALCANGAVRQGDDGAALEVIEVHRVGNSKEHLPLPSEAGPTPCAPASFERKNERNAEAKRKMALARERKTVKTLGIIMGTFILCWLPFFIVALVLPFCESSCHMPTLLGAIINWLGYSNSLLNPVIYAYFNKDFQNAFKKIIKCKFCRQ
Description: The affinity of the compounds of the invention to 5-HT1A receptors was determined by measuring the inhibition of binding of a radioactive ligand at 5-HT1A receptors as described in the following test:
Inhibition of ^3H-5-CT Binding to Human 5-HT1A Receptors.
By this method, the inhibition by drugs of the binding of the 5-HT1A agonist ^3H-5-carboxamido tryptamine (^3H-5-CT) to cloned human 5-HT1A receptors stably expressed in transfected HeLa cells (HA7) (Fargin, A. et al, J. Biol. Chem., 1989, 264, 14848) is determined in vitro. The assay was performed as a modification of the method described by Harrington, M. A. et al, J. Pharmacol. Exp. Ther., 1994, 268, 1098. Human 5-HT1A receptors (40 μg of cell homogenate) were incubated for 15 minutes at 37° C. in 50 mM Tris buffer at pH 7.7 in the presence of ^3H-5-CT. Non-specific binding was determined by including 10 μM of metergoline. The reaction was terminated by rapid filtration through Unifilter GF/B filters on a Tomtec Cell Harvester. Filters were counted in a Packard Top Counter.

[1] = biological target: T2, 3H-5-HT uptake into whole rat brain synaptosomes (serotonin reuptake) (Rattus norvegicus, UniProt P31652); experiment: Inhibition of 3H-5-HT uptake into rat brain synaptosomes; type: biochemical; settings: for IC50: in vitro; for inhibition at 0.1 µM: at 100 nM
T2 construct: whole rat brain synaptosomes; from tissue; host or cells: whole rat brain synaptosomes
Description: Inhibition of ^3H-5-HT Uptake Into Rat Brain Synaptosomes
Using this method, the ability of drugs to inhibit the accumulation of ^3H-5-HT into whole rat brain synaptosomes is determined in vitro. The assay was performed as described by Hyttel, J., Psychopharmacology 1978, 60, 13.

T2 sequence (P31652 whole entry): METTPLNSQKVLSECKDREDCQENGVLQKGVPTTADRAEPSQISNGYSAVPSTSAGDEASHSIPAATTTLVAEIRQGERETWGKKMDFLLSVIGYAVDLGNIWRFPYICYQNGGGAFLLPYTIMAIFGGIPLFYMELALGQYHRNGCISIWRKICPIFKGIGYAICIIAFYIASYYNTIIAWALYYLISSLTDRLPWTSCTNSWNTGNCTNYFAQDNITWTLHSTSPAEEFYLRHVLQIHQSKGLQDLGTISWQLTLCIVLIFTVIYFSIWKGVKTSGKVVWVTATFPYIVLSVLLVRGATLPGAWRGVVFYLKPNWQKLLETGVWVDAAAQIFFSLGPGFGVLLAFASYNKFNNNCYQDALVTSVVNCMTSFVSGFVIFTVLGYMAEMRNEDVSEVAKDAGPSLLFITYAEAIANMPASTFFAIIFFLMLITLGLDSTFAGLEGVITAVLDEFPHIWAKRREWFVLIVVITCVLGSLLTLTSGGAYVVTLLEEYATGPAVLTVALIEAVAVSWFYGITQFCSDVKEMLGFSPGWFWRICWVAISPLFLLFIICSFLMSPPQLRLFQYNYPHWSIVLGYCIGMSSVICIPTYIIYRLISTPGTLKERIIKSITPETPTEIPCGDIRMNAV

Compound	melting point	IC50 (human 5-HT1A receptors) [nM]	IC50 [1] [nM]	inhibition at 0.1 µM [1] [%]
Clc1ccc2c(CCCN3CCN(c4ccccc4Oc4ccc5c(c4)OCO5)CC3)c[nH]c2c1 (as salt: hydrochloride) [Compound 2c, 1-[2-(1,3-Benzodioxolan-5-Yloxy)Phenyl]-4-[3-(6-Chloro-1H-Indol-3-Yl)Propyl]Piperazine]	165 °C (dec.)	–	–	–
COc1ccccc1Oc1ccccc1N1CCN(CCCc2c[nH]c3ccc(F)cc23)CC1 (as salt: hydrochloride) [Compound 2d, 1-[2-(2-Methoxyphenoxy)Phenyl]-4-[3-(5-Fluoro-1H-Indol-3-Yl)Propyl]Piperazine]	183 to 189 °C	–	–	–
c1ccc(N2CCN(CCc3c[nH]c4ccccc34)CC2)c(Oc2ccc3c(c2)OCO3)c1 (as salt: oxalate) [Compound 1b, 1-[2-(1,3-Benzodioxolan-5-yloxy)phenyl]-4-[2-(1H-indol-3-yl)ethyl]piperazine]	221 to 228 °C	–	–	–
c1ccc(N2CCN(CCCc3c[nH]c4ccccc34)CC2)c(Oc2ccc3c(c2)OCO3)c1 (as salt: oxalate) [Compound 2b, 1-[2-(1,3-Benzodioxolan-5-Yloxy)Phenyl]-4-[3-(1H-Indol-3-Yl)Propyl]Piperazine]	156 to 162 °C	–	–	–
c1ccc(N2CCN(CCc3c[nH]c4ccccc34)CC2)c(Oc2ccc3c(c2)OCO3)c1 [Compound 1b, 1-[2-(1,3-Benzodioxolan-5-yloxy)phenyl]-4-[2-(1H-indol-3-yl)ethyl]piperazine]	–	7.8	130	–
c1ccc(N2CCN(CCCc3c[nH]c4ccccc34)CC2)c(Oc2ccc3c(c2)OCO3)c1 [Compound 2b, 1-[2-(1,3-Benzodioxolan-5-Yloxy)Phenyl]-4-[3-(1H-Indol-3-Yl)Propyl]Piperazine]	–	16	2.8	–

Next, values leading:

melting point	IC50 (human 5-HT1A receptors) [nM]	IC50 [1] [nM]	inhibition at 0.1 µM [1] [%]	Compound
–	16	–	27	c1ccc(N2CCN(CCCCc3c[nH]c4ccccc34)CC2)c(Oc2ccc3c(c2)OCO3)c1 [Compound 3c]
–	24	–	40	Clc1ccc2c(CCN3CCN(c4ccccc4Oc4ccc5c(c4)OCO5)CC3)c[nH]c2c1 [Compound 3e, 1-[2-(1,3-Benzodioxolan-5-yloxy)phenyl]-4-[2-(6-chloro-1H-indol-3-yl)ethyl]piperazine]
–	19	14	–	Fc1ccc2[nH]cc(CCCN3CCN(c4ccccc4Oc4cccc5c4OCCO5)CC3)c2c1 [Compound 5a, 1-[2-(1,4-Benzodioxan-5-Yloxy)Phenyl]-4-[3-(5-Fluoro-1H-Indol-3-Yl)Propyl]Piperazine]
–	26	–	42	c1ccc(N2CCN(CCCc3c[nH]c4ccccc34)CC2)c(Oc2cccc3c2OCCO3)c1 [Compound 5ae, 1-[2-(1,4-Benzodioxan-5-yloxy)phenyl]-4-[3-(1H-indol-3-yl)propyl]piperazine]
–	26	23	–	Fc1ccc2[nH]cc(CCCN3CCN(c4ccccc4Oc4cccc(N5CCOCC5)c4)CC3)c2c1 [Compound 5ag, 1-{2-[3-(Morpholin-4-yl)phenoxy]phenyl}-4-[3-(5-fluoro-1H-indol-3-yl)propyl]piperazine]
–	28	–	34	CCOc1cccc(Oc2ccccc2N2CCN(CCCc3c[nH]c4ccc(C)cc34)CC2)c1 [Compound 5ai, 1-[2-(3-Ethoxyphenoxy)phenyl]-4-[3-(5-methyl-1H-indol-3-yl)propyl]piperazine]
–	10	13	–	c1ccc(Oc2ccccc2N2CCN(CCCc3c[nH]c4ccccc34)CC2)cc1 [Compound 5e, 1-(2-Phenoxyphenyl)-4-[3-(1H-indol-3-yl)propyl]piperazine]
–	10	4.8	–	Fc1ccc2[nH]cc(CCCN3CCN(c4ccccc4Oc4ccccc4)CC3)c2c1 [Compound 5f, 1-(2-Phenoxyphenyl)-4-[3-(5-fluoro-1H-indol-3-yl)propyl]piperazine]
–	10	–	55	COc1cccc(OC)c1Oc1ccccc1N1CCN(CCCc2c[nH]c3ccc(Br)cc23)CC1 [Compound 5h, 1-[2-(2,6-Dimethoxyphenoxy)phenyl]-4-[3-(5-bromo-1H-indol-3-yl)propyl]piperazine]
–	10	–	46	Cc1ccc2[nH]cc(CCCN3CCN(c4ccccc4Oc4cccc(N(C)C)c4)CC3)c2c1 [Compound 5i, 1-(2-[3-(Dimethylamino)phenoxy]phenyl]-4-[3-(5-methyl-1H-indol-3-yl)propyl]piperazine]
–	13	4.7	–	COc1ccccc1Oc1ccccc1N1CCN(CCCc2c[nH]c3ccc(F)cc23)CC1 [Compound 5l, 1-[2-(2-Methoxyphenoxy)phenyl]-4-[3-(5-fluoro-1H-indol-3-yl)propyl]piperazine]
–	18	33	–	COc1ccccc1Oc1ccccc1N1CCN(CCCc2c[nH]c3c(F)cc(F)cc23)CC1 [Compound 5x, 1-[2-(2-Methoxyphenoxy)phenyl]-4-[3-(5,7-difluoro-1H-indol-3-yl)propyl]piperazine]
